Values joined by “and” are separate entries in the source; they are usually repeats but may differ in a detail not shown here. Identical values can stand only once.
Experiments:
[1] = system: peripapillary sclera; experiment: Photographic circumferential strain analysis during IOP elevation, peripapillary sclera; set-up: species or system porcine; conditions: Group 3; GTA on PS only; IOP 2-4 to 80 mmHg
Method: (§1) Eighteen porcine globes were divided evenly into 3 groups. The optic nerves were transected to expose the ON/LC, and each globe was infused through an in-line pressure transducer for direct IOP control. Surface wave velocity, a non-destructive measure of tissue stiffness, was measured across the ON/LC and PS before and after collagen crosslinking at IOP of 10 and 30 mmHg (groups 1 and 2) and at each globe's preinflation IOP and 80 mmHg (group 3). In group 3, papillary strain was measured by analyzing the displacement of fiducial marks immediately adjacent to the ON/LC using digital photography.
(§2) In group 3 (n=6), the same procedure described for group 2 was implemented with the following exceptions. First, four fiducial ink marks were placed in each quadrant of the PS immediately adjacent to the ON/LC prior to measurement. High-resolution (7.1 megapixel) digital photos were then taken at both low and high IOP before and after crosslinking. The vertical and horizontal distances between the outer extent of the ink marks and the outer margins of the optic nerve were measured in Photoshop (Adobe Systems, Inc., San Jose, Calif.), and the centripetal displacement of the fiducial marks (Δ1) was divided by the initial distance between the marks (10) to yield dimensionless indicators of circumferential strain (ζ=Δ1/10) in the peripapillary sclera and ON/LC, respectively. Second, measurements were acquired at each eye's pre-inflation pressure (between 2 to 4 mmHg) and at 80 mmHg to ensure that measurable changes in SWV and ON/LC geometry would be generated in at least one experimental group. As in group 2, the peripapillary sclera was selectively exposed to GTA and post-crosslinking measurements were repeated at low and high IOP. Same-eye statistical comparisons of wave velocity and strain were performed with paired student's t-tests.

[2] = system: peripapillary sclera; experiment: Estimate of PS ring elastic (secant) modulus by LaPlace equation and measured strain; set-up: species or system porcine
Excerpt: By a similar analysis of strain across the ON in the same eyes, the pressure-induced change in ON diameter was 10.5±3.9% horizontally and 9.4±6.5% vertically prior to crosslinking. The combined vertical and horizontal strain averaged 7.3±4.4% across the PS ring and 10.2±5.4% across the ON/LC region alone (p=0.22). […] The native stiffness value compares favorably to the porcine scleral modulus of 500 kPa measured by Pierscionek B K, et al., Br J Opthalmol.; 91(6):801-803 (2007) particularly since their measurement was obtained at a lower peak pressure (50 mmHg) and was obtained from the entire sclera, which incorporates the thinner and effectively more elastic sclera anterior to the posterior pole (Olsen T W, et al., Invest Opthalmol Vis Sci; 43(8):2529-2532 (2002)).
The elastic modulus (E) of peripapillary sclera (PS) in Group 3 was estimated before and after crosslinking. First, measured PS strain was […] the circumferential stress as derived from the LaPlace equation, σ=IOP×R/2t, where σ indicates the circumferential stress as a function of IOP, scleral radius of curvature (R), and sclera thickness (t). […]

[3] = system: porcine sclera; conditions: scleral strips; 1 hour glutaraldehyde, 5 days glyceraldehydes, 30 minutes UVA for riboflavin/UVA; cited from earlier work
[4] = system: optic nerve/lamina cribrosa complex; experiment: Photographic circumferential strain analysis during IOP elevation, ON/LC; set-up: species or system porcine; conditions: Group 3; GTA on PS only; IOP 2-4 to 80 mmHg
Method: as §1, §2

O=CCCCC=O [GTA, glutaraldehyde]
Average Circumferential Strain of PS with IOP elevation, Post-Crosslinking Mean ± SD [1]: 0.38% and 0.4 ± 1.3%
Horizontal Circumferential Strain of PS with IOP elevation, Post-Crosslinking Mean ± SD [1]: 0.0 ± 0.0%
Vertical Circumferential Strain of PS with IOP elevation, Post-Crosslinking Mean ± SD [1]: 0.7 ± 1.9%
PS ring elastic modulus after crosslinking (estimate) ([2]; Group 3, GTA, stress increment 4 to 80 mmHg divided by crosslinked strain): 16.1 MPa
Increase in stiffness (elastic modulus) of peripapillary sclera with crosslinking ([2]; glutaraldehyde-mediated crosslinking, estimate): ~20 fold
Rise in porcine scleral stress (rigidity) [3]: 8 ×
Average Circumferential Strain of ON/LC with IOP elevation, Post-Crosslinking Mean ± SD [4]: 0.0 ± 0.0%
Horizontal Circumferential Strain of ON/LC with IOP elevation, Post-Crosslinking Mean ± SD [4]: 0.0 ± 0.0%
Vertical Circumferential Strain of ON/LC with IOP elevation, Post-Crosslinking Mean ± SD [4]: 0.0 ± 0.0%

From US8580789B2, “Treating glaucoma” (The Cleveland Clinic Foundation, priority 2007, dated 2013)
